Ends that are not written are not given here.
Target: T1, trimeric, post-fusion form of sE (dengue envelope protein E, residues 1-395) (Dengue virus type 2, UniProt P12823)
T1 construct: post-fusion form of sE, the fragment of E spanning residues 1-395; purchased Hawaii Biotech (Hawaii Biotechnology Group, Inc., Aiea, Hi.); host or cells: Drosophila melanogaster Schneider 2 cells (pMtt vector, prM-E preprotein processed during secretion)
Test: fluorescence depolarization binding of stem peptides to sE trimer
Excerpt: FIG. 10 depicts fluorescence depolarization binding data for a peptide corresponding to residues 396-429 (in the “stem” region) of dengue envelope protein (E). FIG. 10A depicts a Kd analysis of the peptide's binding affinity to the trimeric, post-fusion form of E. FIG. 10B depicts a competitive binding analysis with the fluorescent and unlabeled peptide.
FIG. 11 depicts a fluorescence depolarization Kd analysis to measure the affinity between a peptide corresponding to residues 413-447 (in the “stem” region) of dengue envelope protein (E). and the trimeric, post-fusion form of E.
A peptide corresponding to residues 396-429 (in the “stem” region) of dengue envelope protein (E) binds with fairly high affinity and specificity to the trimeric, post-fusion form of sE, the fragment of E spanning residues 1-395, which we crystallized first in the pre-fusion form and then in the post-fusion form. We determined the dissociation constant (Kd) of the peptide from sE from fluorescence depolarization measurements using a fluorescently labeled version of the peptide. The Kd is around 6 μM. This indicates a fairly strong binding. FIG. 10 depicts the fluorescence depolarization results. The Kd is approximately equal to the concentration of sE at which the depolarization (in mP) reaches its half-maximal value (see FIG. 10A). […]

Molecule | competitive binding of fluorescent and unlabeled peptide (fluorescence depolarization, FIG. 10B, shows that binding is specific to one site of sE) | Kd [µM]
CC[C@H](C)[C@H](NC(=O)[C@H](C)NC(=O)[C@H](CCSC)NC(=O)[C@H](CCCNC(=N)N)NC(=O)[C@H](CCCCN)NC(=O)[C@H](C)NC(=O)CNC(=O)[C@H](CCCNC(=N)N)NC(=O)[C@H](CCSC)NC(=O)[C@@H](NC(=O)[C@@H](NC(=O)[C@H](CCC(=O)O)NC(=O)[C@H](Cc1ccccc1)NC(=O)[C@H](CCSC)NC(=O)[C@H](CCC(N)=O)NC(=O)CNC(=O)[C@@H](NC(=O)[C@H](CO)NC(=O)[C@@H](N)CO)[C@@H](C)CC)[C@@H](C)O)[C@@H](C)O)C(=O)N[C@@H](CC(C)C)C(=O)NCC(=O)N[C@@H](CC(=O)O)C(=O)N[C@H](C(=O)N[C@@H](C)C(=O)N[C@@H](Cc1c[nH]c2ccccc12)C(=O)N[C@@H](CC(=O)O)C(=O)N[C@@H](Cc1ccccc1)C(=O)NCC(=O)N[C@@H](CO)C(=O)N[C@@H](CC(C)C)C(=O)NCC(=O)NCC(=O)N[C@H](C(=O)N[C@@H](Cc1ccccc1)C(=O)O)C(C)C)[C@@H](C)O [396-429] | can be competed off of sE with unlabeled peptide | –
AILGDTAWDFGSLGGVFTSIGKALHQVFGAIYGAA [413-447] | – | ~4

Source: patent US8673552B2, “Druggable regions in the dengue virus envelope glycoprotein and methods of using the same” (Children's Medical Center Corporation, priority 2003, dated 2014)
